Test systems include ACHN; BT-549; CCRF-CEM; DU-145; HCT-15; HOP-62; HOP-92; IGROV-1; MDA-MB-231; MDA-MB-435; Malme-3M; NCI-H23; NCI-H460; NCI/ADR-RES; SF-268; SK-MEL-28; SK-MEL-5; SN12C; SNB-75; T47D.
Common to all, as to experiment: NCI anticancer screen, dose series, 48 h

Each structure is given as a SMILES string.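 Results reflect a 48-hour exposure of cells in 96-well plates to compound at five concentrations. The concentration for 50% growth inhibition is given as GI50.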 The source made the active and inactive calls. Rule as the data show it: active = GI50 up to about 1.1 µM and inactive = higher.

With `Fc1ccc(NC(=S)SCc2ccc3c(c2)OCO3)cc1F`, the GI50 in the assay with ACHN was 19.7 µM (inactive); with BT-549 it was 21.1 µM (inactive); in the assay on CCRF-CEM, 23.4 µM (inactive); in the assay with DU-145, 31.6 µM (inactive); in the assay on HCT-15, 17.2 µM; in the assay with HOP-62, 39.5 µM (inactive). For the same molecule, the GI50 with HOP-92 is 23.2 µM (inactive); with IGROV-1, 18.6 µM (inactive); in the assay with MDA-MB-231 it was 31.1 µM (inactive); with MDA-MB-435 it was 20.6 µM (inactive); in the assay on Malme-3M, 24.4 µM (inactive); with NCI-H23, 20.7 µM (inactive). For the same molecule, the GI50 is 28 µM (inactive) in the assay with NCI-H460; 25.2 µM (inactive) with NCI/ADR-RES; 21.2 µM (inactive) in the assay with SF-268; 3.76 µM (inactive) in the assay on SK-MEL-28; 16 µM (inactive) with SK-MEL-5; 16.3 µM (inactive) in the assay on SN12C. In addition, the figures for the GI50 with SNB-75 and with T47D were 20.6 µM (inactive) and 10.8 µM (inactive), respectively.

Regarding `CN(C)CCCNc1c2ccccc2[n+]([O-])c2ccccc12`, the GI50 with ACHN was 49.1 µM (inactive); in the assay on BT-549, 19.1 µM (inactive); with CCRF-CEM it was 62.1 µM (inactive); in the assay on DU-145, > 100 µM (inactive); in the assay on HCT-15, 41.4 µM; in the assay with HOP-62 it was 43.5 µM (inactive). The GI50 in the assay on HOP-92 is 36.5 µM (inactive); with IGROV-1 it was 37.3 µM (inactive); with MDA-MB-231 it was 63.4 µM (inactive); in the assay on MDA-MB-435, 50.8 µM (inactive); with Malme-3M, 76.7 µM (inactive); in the assay with NCI-H23, 45.7 µM (inactive). In addition, the GI50 with NCI-H460 was 27.5 µM (inactive); in the assay with NCI/ADR-RES, > 100 µM (inactive); in the assay with SF-268 it was 74.6 µM (inactive); with SK-MEL-28, > 100 µM (inactive); with SK-MEL-5, 40.1 µM (inactive); with SN12C, 46.1 µM (inactive). The GI50 with SNB-75 was 51.4 µM (inactive); with T47D, 78 µM (inactive).
